Laboratory results published in patent US11905284B2, “5,7-dihydro-pyrrolo-pyridine derivatives” (PFIZER INC., priority 2016, dated 2024).

Target: T1, Human M4 receptors (Homo sapiens, UniProt P08173)
T1 construct: expressed in transfected cells; host or cells: HEK293 cells with Promega GloSensor cAMP technology, stably expressing hM4
T1 sequence (P08173 1-479): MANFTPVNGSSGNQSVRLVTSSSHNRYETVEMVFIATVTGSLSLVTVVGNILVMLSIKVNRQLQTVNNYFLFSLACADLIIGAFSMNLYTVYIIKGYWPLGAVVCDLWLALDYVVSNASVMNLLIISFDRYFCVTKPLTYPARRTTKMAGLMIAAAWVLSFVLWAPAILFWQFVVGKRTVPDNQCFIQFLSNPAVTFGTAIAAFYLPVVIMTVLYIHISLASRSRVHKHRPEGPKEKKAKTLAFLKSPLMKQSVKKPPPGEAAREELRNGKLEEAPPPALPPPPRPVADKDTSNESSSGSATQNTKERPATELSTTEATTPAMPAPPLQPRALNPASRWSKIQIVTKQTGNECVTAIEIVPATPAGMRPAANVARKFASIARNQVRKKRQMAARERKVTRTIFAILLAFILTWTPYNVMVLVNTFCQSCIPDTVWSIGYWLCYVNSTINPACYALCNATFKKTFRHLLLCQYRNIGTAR
Assay: M4 PAM cAMP assay (GloSensor)
Type: cell-based
Settings: for Emax: HEK293, read-out: M4 glosensor EC50 Mean Asymptote Maximum (%); for EC50: HEK293 GloSensor cells expressing hM4, with EC20 acetylcholine and isoproterenol, geometric mean of 2-4 determinations unless otherwise indicated
Method: The M4 PAM binding affinity for the compounds of the present invention was determined utilizing the following biological assay(s):
The M4 cAMP assay was designed to determine the potency and efficacy of muscarinic positive allosteric modulators (PAMs). Human M4 receptors were stably expressed in Human embryonic kidney (HEK293) cells expressed with the Promega GloSensor™ cAMP technology.
HEK293 GloSensor cells expressing hM4 cells were cultured in growth media containing DMEM with 10% FBS, 1% Penicillin/Streptomycin, 500 μg/mL G418, 200 μg/mL Hygomycin B, and 1% Glutamax. […] Plates were incubated at 37 degrees C. and 5% CO2 for use after 24 hours.
Compound Preparation for Agonist Screen:
Each compound was tested at 10 concentrations in duplicate per experiment. Compound plates are spotted with 0.2 μL/well agonist at 400 times the final assay concentration. Positive and negative controls for the compound alone agonist response was 10 μM acetylcholine (Sigma #A2661) and DMSO, respectively. EC20 of acetylcholine was also used to define PAM activities.
Promega GloSensor™ reagent (Promega #E1291) had previously been aliquotted. […] Stock solution was mixed. Culture media in cell plates was discarded, then replaced with 40 μL/well pre-warmed equilibration media, then incubated in the dark at room temperature for 2 hours. During the incubation, stimulation media containing agonist and EC20 acetylcholine was prepared. […] Compounds are now 5 times the final assay concentration. The plate was mixed using a plate agitator. At the end of the 2 hour GloSensor™ incubation, add 10 μL of the CO2-independent media containing agonist, EC20 acetylcholine and isoproterenol to the cell plate. Cell plate was then incubated for 10 minutes at room temperature, and then read using an EnVision plate reader (Perkin Elmer).
Data was exported from the EnVision plate reader. The percent effect for each well was determined using the mean values for the positive and negative controls on each plate for each read, specifically 100*(compound−negative control)/(positive control−negative control). Dose response curves were fitted to the compound percent effect data using a 4-parameter logistic fit model. Data was reported as EC50 and Emax, with the Emax as the maximum asymptote of the fitted dose response curve.

| Compound | Emax [%] | EC50 [nM] |
| --- | --- | --- |
| Cc1cc(C)c2c(n1)CN(C(=O)CC1CN(c3ccnnc3)C1)C2 [Example 30, 1-(2,4-dimethyl-5,7-dihydro-6H-pyrrolo[3,4-b]pyridin-6-yl)-2-[1-(pyridazin-4-yl)azetidin-3-yl]ethanone] | 103 | 30.3 |
| Cc1c(C(F)F)nc2c(c1C)CN(C(=O)CC1CN(c3ccnc(C(F)F)c3)C1)C2 [Example 53, 1-[2-(difluoromethyl)-3,4-dimethyl-5,7-dihydro-6H-pyrrolo[3,4-b]pyridin-6-yl]-2-{1-[2-(difluoromethyl)pyridin-4-yl]azetidin-3-yl}ethanone] | 104 | 38.6 |
| Cc1cc(C)c2c(n1)CN(C(=O)CC1CN(c3ccc4nc(C)cn4n3)C1)C2 [Example 43, 1-(2,4-dimethyl-5,7-dihydro-6H-pyrrolo[3,4-b]pyridin-6-yl)-2-[1-(2-methylimidazo[1,2-b]pyridazin-6-yl)azetidin-3-yl]ethanone] | 88.6 | 25.2 |
| Cc1nc2c(c(C)c1Cl)CN(C(=O)CC1CN(c3ccncn3)C1)C2 [Example 39, 1-(3-chloro-2,4-dimethyl-5,7-dihydro-6H-pyrrolo[3,4-b]pyridin-6-yl)-2-[1-(pyrimidin-4-yl)azetidin-3-yl]ethanone] | 96.4 | < 1.39 |
| Cc1cc(C(F)F)nc2c1CN(C(=O)CC1CN(c3ccnc(C(F)(F)F)c3)C1)C2 [Example 6, 1-[2-(Difluoromethyl)-4-methyl-5,7-dihydro-6H-pyrrolo[3,4-b]pyridin-6-yl]-2-{1-[2-(trifluoromethyl)pyridin-4-yl]azetidin-3-yl}ethanone] | 92.4 | 9.75 |
| CCNc1nccc(N2CC(CC(=O)N3Cc4nc(C)cc(C)c4C3)C2)n1 [Example 41, 1-(2,4-dimethyl-5,7-dihydro-6H-pyrrolo[3,4-b]pyridin-6-yl)-2-{1-[2-(ethylamino)pyrimidin-4-yl]azetidin-3-yl}ethanone] | 95.6 | 7.35 |
| Cc1nc2c(c(C)c1C)CN(C(=O)CC1CN(c3cccnc3)C1)C2 [Example 23, 2-[1-(pyridin-3-yl)azetidin-3-yl]-1-(2,3,4-trimethyl-5,7-dihydro-6H-pyrrolo[3,4-b]pyridin-6-yl)ethanone] | 92.2 | 6.23 |
| COc1ccc(N2CC(CC(=O)N3Cc4nc(C)cc(C)c4C3)C2)cc1CC#N [Example 74, (5-{3-[2-(2,4-dimethyl-5,7-dihydro-6H-pyrrolo[3,4-b]pyridin-6-yl)-2-oxoethyl]azetidin-1-yl}-2-methoxyphenyl)acetonitrile] | 84.4 | 460 |
| Cc1cc(CO)nc2c1CN(C(=O)CC1CN(c3ccnc(C(F)(F)F)c3)C1)C2 [Example 33, 1-[2-(hydroxymethyl)-4-methyl-5,7-dihydro-6H-pyrrolo[3,4-b]pyridin-6-yl]-2-{1-[2-(trifluoromethyl)pyridin-4-yl]azetidin-3-yl}ethanone] | 100 | 14 |
| Cc1nc2c(c(C)c1C)CN(C(=O)CC1CN(c3ccncn3)C1)C2 [Example 35, 2-[1-(pyrimidin-4-yl)azetidin-3-yl]-1-(2,3,4-trimethyl-5,7-dihydro-6H-pyrrolo[3,4-b]pyridin-6-yl)ethanone] | 87.9 | 2.56 |
| Cc1nc2c(c(C)c1C)CN(C(=O)CC1CN(c3ncns3)C1)C2 [Example 5, 2-[1-(1,2,4-Thiadiazol-5-yl)azetidin-3-yl]-1-(2,3,4-trimethyl-5,7-dihydro-6H-pyrrolo[3,4-b]pyridin-6-yl)ethanone] | 98.2 | 8.88 |
| CNC(=O)c1ccc(N2CC(CC(=O)N3Cc4nc(C)cc(C)c4C3)C2)cc1 [Example 75, 4-{3-[2-(2,4-dimethyl-5,7-dihydro-6H-pyrrolo[3,4-b]pyridin-6-yl)-2-oxoethyl]azetidin-1-yl}-N-methylbenzamide] | 89.2 | 105 |
| Cc1cc(C)c2c(n1)CN(C(=O)C[C@H]1C[C@@H]1c1ccccc1)C2 (racemic) [Example 77, 1-(2,4-dimethyl-5,7-dihydro-6H-pyrrolo[3,4-b]pyridin-6-yl)-2-[trans-2-phenylcyclopropyl]ethanone] | 176 | 2880 |
| COCc1nc2c(c(C)c1Cl)CN(C(=O)CC1CN(c3ccnc(C(F)F)c3)C1)C2 [Example 47, 1-[3-chloro-2-(methoxymethyl)-4-methyl-5,7-dihydro-6H-pyrrolo[3,4-b]pyridin-6-yl]-2-{1-[2-(difluoromethyl)pyridin-4-yl]azetidin-3-yl}ethanone] | 110 | 2.19 |
| Cc1nc2c(c(C)c1Cl)CN(C(=O)CC1CN(c3nncs3)C1)C2 [Example 44, 1-(3-chloro-2,4-dimethyl-5,7-dihydro-6H-pyrrolo[3,4-b]pyridin-6-yl)-2-[1-(1,3,4-thiadiazol-2-yl)azetidin-3-yl]ethanone] | 112 | 16.8 |
| Cc1cc(C)c2c(n1)CN(C(=O)CC1CN(c3ccc(C4(C)COC4)cc3)C1)C2 [Example 68, 1-(2,4-dimethyl-5,7-dihydro-6H-pyrrolo[3,4-b]pyridin-6-yl)-2-{1-[4-(3-methyloxetan-3-yl)phenyl]azetidin-3-yl}ethanone] | 99.4 | 485 |
| COCc1nc2c(c(C)c1Cl)CN(C(=O)OC1CN(c3cccnc3)C1)C2 [Example 66, 1-(pyridin-3-yl)azetidin-3-yl 3-chloro-2-(methoxymethyl)-4-methyl-5,7-dihydro-6H-pyrrolo[3,4-b]pyridine-6-carboxylate] | 163 | 52.3 |
| Cc1nc2c(c(C)c1C)CN(C(=O)OC1CN(c3ncns3)C1)C2 [Example 64, 1-(1,2,4-thiadiazol-5-yl)azetidin-3-yl 2,3,4-trimethyl-5,7-dihydro-6H-pyrrolo[3,4-b]pyridine-6-carboxylate] | 88.5 | 40.2 |
| Cc1ccc([C@@H]2C[C@H]2CC(=O)N2Cc3nc(C)cc(C)c3C2)cn1 [Example 16, 1-(2,4-Dimethyl-5,7-dihydro-6H-pyrrolo[3,4-b]pyridin-6-yl)-2-[(1S,2R)-2-(6-methylpyridin-3-yl)cyclopropyl]ethanone] | – | > 10000 |
| Cc1nc2c(c(C)c1Cl)CN(C(=O)CC1CN(c3cccnc3)C1)C2 [Example 13, 1-(3-Chloro-2,4-dimethyl-5,7-dihydro-6H-pyrrolo[3,4-b]pyridin-6-yl)-2-[1-(pyridin-3-yl)azetidin-3-yl]ethanone] | 101 | 2.04 |
| Cc1cc(C)c2c(n1)CN(C(=O)CC1CN(c3ccc(CO)cc3)C1)C2 [Example 71, 1-(2,4-dimethyl-5,7-dihydro-6H-pyrrolo[3,4-b]pyridin-6-yl)-2-{1-[4-(hydroxymethyl)phenyl]azetidin-3-yl}ethanone] | 90.5 | 195 |
| Cc1nc2c(c(C)c1C)CN(C(=O)OC1CN(c3nncs3)C1)C2 [Example 65, 1-(1,3,4-thiadiazol-2-yl)azetidin-3-yl 2,3,4-trimethyl-5,7-dihydro-6H-pyrrolo[3,4-b]pyridine-6-carboxylate] | 88.2 | 62.6 |
| COCc1cc(C)c2c(n1)CN(C(=O)CC1CN(c3cncnc3)C1)C2 [Example 31, 1-[2-(methoxymethyl)-4-methyl-5,7-dihydro-6H-pyrrolo[3,4-b]pyridin-6-yl]-2-[1-(pyrimidin-5-yl)azetidin-3-yl]ethanone] | 89.3 | 17.8 |
| COCc1nc2c(c(C)c1Cl)CN(C(=O)CC1CN(c3ccnc(OC(F)F)c3)C1)C2 [Example 52, 1-[3-chloro-2-(methoxymethyl)-4-methyl-5,7-dihydro-6H-pyrrolo[3,4-b]pyridin-6-yl]-2-{1-[2-(difluoromethoxy)pyridin-4-yl]azetidin-3-yl}ethanone] | 111 | 4.68 |
| Cc1cc(CO)nc2c1CN(C(=O)CC1CN(c3ccncn3)C1)C2 [Example 24, 1-[2-(hydroxymethyl)-4-methyl-5,7-dihydro-6H-pyrrolo[3,4-b]pyridin-6-yl]-2-[1-(pyrimidin-4-yl)azetidin-3-yl]ethanone] | 93.8 | 31 |
